Here are results for three compounds from US6486096B1, “Herbicidal compositions with acylated aminophenylsulfonylureas” (priority 1998, dated 2002).

Holding throughout (type): in vivo
One data set concerns Chrysanthemum coronarium. Briefly: Herbicidal action, visual scoring. The following applies: Table 8; post-emergence; scoring 46 days after application; g of A.S./ha by row: r7 60, r8 270, r9 450, r10 60 + 270. As to the method:
(§1) The herbicidal activity of the active substances or active substance mixtures was scored visually with the aid of the treated parcels in comparison with untreated control parcels. Damage to and development of all above-ground parts of plants was recorded here. Scoring was carried out on a percentage scale (100% action=all plants died; 50% action=50% of the plants and green plant parts died; 0% action=no discernible action=like control parcels. The mean of the scoring values of 4 parcels in each case was taken.
(§2) Seeds or rhizome pieces of monocotyledonous and dicotyledonous weeds are placed in sandy loam soil in pots, covered with soil and grown in the greenhouse under good growth conditions (temperature, humidity, water supply). Three weeks after sowing, the test plants in the three-leaf stage are treated with the compositions according to the invention. The compositions according to the invention which are formulated as wettable powders or as emulsion concentrates are sprayed in various dosages on the green parts of the plants at an application rate of 600 to 800 l of water/ha (converted). After the test plants have remained in the greenhouse for about 3 to 4 weeks under optimal growth conditions, the effect of the products is scored visually by comparison with untreated controls. When applied post-emergence, too, the compositions according to the invention have a good herbicidal activity against a broad spectrum of economically important grass weeds and broad-leaved weeds.
(§3) Crop plants were raised outdoors under natural outdoor conditions on plots in which seeds or rhizome sections of typical harmful plants had been sown or the natural weed infestation was used. The treatment with the compositions according to the invention was carried out after the emergence of the harmful plants and the crop plants, as a rule in the 2 to 4-leaf stage; in some cases (as indicated) the application of individual active substances or active substance combinations was carried out pre-emergence (cf. Example 1) or as a sequence treatment, in some cases pre-emergence and/or post-emergence.
(§4) After the application, e.g. 2, 4, 6 and 8 weeks after application, the action of the preparations was scored visually in comparison with untreated controls (cf. score in Example 1). […] The crop plants, however, were not damaged or were only insignificantly damaged as a result of the treatment with the herbicidal compositions.

In data set [1] the test system is ABUTH = Abutilon theophrasti. As to the kind of experiment: Herbicidal action, visual scoring. The following applies: Table 2; scoring 3 weeks after application; (pe) pre-emergence, (po) post-emergence; g of A.S./ha by row: r6 35 (po), r7 1120 + 1120 (pe), r9 (1120 + 1120) (pe) + 35 (po). Here is the method: as §1, §2, §3, §4
Another data set relates to Avena sterilis. As to the kind of experiment: Herbicidal action, visual scoring. As to conditions: Table 8; post-emergence; scoring 46 days after application; g of A.S./ha by row: r7 60, r8 270, r9 450, r10 60 + 270. As to the method: as §1, §2, §3, §4
The subject of data set [2] is IPOPU = Ipomoea purpureum. Briefly: Herbicidal action, visual scoring. The following applies: Table 3, post-emergence, scoring 6 weeks after application, g of A.S./ha 15, 30, 45, 60, 300, 30 + 300. As to the method: as §1, §2, §3, §4
For data set [3], the system named is XANOR (Xanthium orientalis). Briefly: Herbicidal action, visual scoring. The following applies: Table 10, post-emergence, scoring 3 weeks after application, g of A.S./ha by row: r7 120, r8 60, r9 30, r10 15, r20 2000, r21 1000, r22 500, r23 30 + 1000, r25 15 + 1000, r27 30 + 500. As to the method:
as §1, §2, §3, §4

Data set [4] deals with PHBPU = Pharbitis purpurea. As to the kind of experiment: Herbicidal action, visual scoring. The following applies: Table 2; scoring 3 weeks after application; (pe) pre-emergence, (po) post-emergence; g of A.S./ha by row: r6 35 (po), r7 1120 + 1120 (pe), r9 (1120 + 1120) (pe) + 35 (po). Here is the method: as §1, §2, §3, §4
For data set [5], the system named is EPHHL = Euphorbia heterophylla. Briefly: Herbicidal action, visual scoring. The following applies: Table 13; post-emergence; scoring 3 weeks after application; g of A.S./ha by row: r7 30, r8 100, r9 150, r10 30 + 50. As to the method:
as §1, §2, §3, §4

The subject of the next data set is SOLNI. Briefly: Herbicidal action, visual scoring. The following applies: Table 10, post-emergence, scoring 3 weeks after application, g of A.S./ha by row: r7 120, r8 60, r9 30, r10 15, r11 12, r12 6, r13 3, r14 30 + 6, r16 15 + 6, r18 30 + 3. As to the method:
as §1, §2, §3, §4

A further data set has as its system Brachiaria plantophylla. Briefly: Herbicidal action, visual scoring. As to conditions: Table 24; post-emergence; scoring 6 weeks after application; g of A.S./ha by row: r6 45, r7 22.5, r8 60, r9 30, r11 22.5 + 30, r13 60, r14 30, r16 22.5 + 30, r18 450, r20 22.5 + 450. As to the method:
as §1, §2, §3, §4

The next data set has as its system rice. Briefly: Damage on crop plants (selectivity), visual scoring. As to conditions: Table 24; post-emergence; scoring 6 weeks after application; g of A.S./ha by row: r6 45, r7 22.5, r8 60, r9 30, r11 22.5 + 30, r13 60, r14 30, r16 22.5 + 30, r18 450, r20 22.5 + 450. As to the method:
as §1, §3
(§5) After the application, e.g. 2, 4, 6 and 8 weeks after application, the action of the preparations was scored visually in comparison with untreated controls (cf. score in Example 1). […]

Data set [6] concerns Sethoxidime-resistant corn (SR). Described as above. The following applies: Table 22, post-emergence, scoring 4 weeks after application, g of A.S./ha by row: r7 50, r8 25, r9 12.5, r10 400, r11 200, r12 100, r13 12.5 + 100, r14 12.5 + 200, r15 25 + 100. As to the method: as §1, §3, §5

Values joined by “and” are separate entries in the source; they are usually repeats but may differ in a detail not shown here. Equal values may be shown once.

As for `COc1cc(OC)nc(NC(=O)NS(=O)(=O)c2cc(NC=O)ccc2C(=O)N(C)C)n1` [(A1.1), N-[N-(4,6-dimethoxypyrimidin-2-yl)aminocarbonyl]-2-(dimethylaminocarbonyl)-5-(formylamino)benzenesulfonamide], the “Herbicidal action against Chrysanthemum coronarium” value in the data set on Chrysanthemum coronarium is given as 20%. Moreover, the “Herbicidal action ABUTH” value in [1] stood at 88%. In the data set on Avena sterilis, the “Herbicidal action against Avena sterilis” value turned out to be 83%. Besides, the “Herbicidal action IPOPU” value in data set [2] (15 g of A.S./ha) turned out to be 43%; in [2] (30 g of A.S./ha), 67%; in data set [2] (45 g of A.S./ha), 70%; in data set [2] (60 g of A.S./ha) it was 83%. Also, the “Herbicidal action XANOR” value in data set [3] (15 g active substance per ha) is on record as 45%; in data set [3] (30 g active substance per ha) it was 55%; in data set [3] (120 g active substance per ha) it was 60%. For the same compound, the “Herbicidal action PHBPU” value in data set [4] worked out at 45%. In addition, in data set [5], the “Herbicidal action EPHHL” value was determined as 70%. For the same compound, the “Herbicidal action SOLNI” value in the data set with SOLNI (15 g active substance per ha) is 65%; in the data set with SOLNI (30 g active substance per ha), 83%; with SOLNI (60 g active substance per ha), 90%; in the data set with SOLNI (120 g active substance per ha), 90%.

As for `COP(=S)(OC)SCC(=O)N(c1ccc(Cl)cc1)C(C)(C)C` [(B1.6.11), anilofos], the “Herbicidal action Brachiaria plantophylla” value with Brachiaria plantophylla was found to be 35%. In the data set on rice, the Damage on rice is listed as 8%.

As to `CCC/C(=N\OCC)C1=C(O)CC(CC(C)SCC)CC1=O` (stereo not shown) [(B1.6.33), sethoxydim], the “Damage on corn (SR)” value in [6] was 3% and 2% and 0%.
